This assay concerns the target T1, Human A2a Adenosine Receptor (Homo sapiens, UniProt P29274).
T1 construct: purchased Receptor Biology, Inc., Beltsville, Md; RB-HA2a
The experiment in a line: Human adenosine A2a receptor competition binding assay. The conditions noted are these: [3H]-SCH 58261 displacement, human A2a membranes. As to the method: Human Adenosine A2a and A1 Receptor Competition Binding Assay Protocol
A2a: Human A2a Adenosine Receptor membranes, Catalog #RB-HA2a, Receptor Biology, Inc., Beltsville, Md. Dilute to 17 μg/100 μl in membrane dilution buffer (see below).
Membrane dilution buffer: Dulbecco's Phosphate Buffered Saline (Gibco/BRL)+10 mM MgCl2.
Compound Dilution Buffer: Dulbecco's Phosphate Buffered Saline (Gibco/BRL)+10 mM MgCl2 supplemented with 1.6 mg/ml methyl cellulose and 16% DMSO. Prepared fresh daily.
A2a: [3H]-SCH 58261, custom synthesis, AmershamPharmacia Biotech, Piscataway, N.J. Stock is prepared at 1 nM in membrane dilution buffer. Final assay concentration is 0.5 nM.
A2a: To determine non-specific binding, add 100 nM CGS 15923 (RBI, Natick, Mass.). Working stock is prepared at 400 nM in compound dilution buffer.
Prepare 1 mM stock solutions of compounds in 100% DMSO. Dilute in compound dilution buffer. Test at 10 concentrations ranging from 3 μM to 30 pM. Prepare working solutions at 4× final concentration in compound dilution buffer.
Perform assays in deep well 96 well plates. Total assay volume is 200 μl. Add 50 μl compound dilution buffer (total ligand binding) or 50 μl CGS 15923 working solution (A2a non-specific binding) or 50 μl NECA working solution (A1 non-specific binding) or 50 μl of drug working solution. Add 50 μl ligand stock ([3H]-SCH 58261 for A2a, [3H]-DPCPX for A1). Add 100 μl of diluted membranes containing the appropriate receptor. Mix. Incubate at room temperature for 90 minutes. Harvest using a Brandel cell harvester onto Packard GF/B filter plates. Add 45 μl Microscint 20 (Packard), and count using the Packard TopCount Microscintillation Counter. Determine IC50 values by fitting the displacement curves using an iterative curve fitting program (Excel). Determine Ki values using the Cheng-Prusoff equation.

The values that follow come from patent US7713985B2, “Adenosine Aa2 receptor antagonists” (Schering Corporation, priority 2006, dated 2010).

T1 sequence (P29274 whole entry): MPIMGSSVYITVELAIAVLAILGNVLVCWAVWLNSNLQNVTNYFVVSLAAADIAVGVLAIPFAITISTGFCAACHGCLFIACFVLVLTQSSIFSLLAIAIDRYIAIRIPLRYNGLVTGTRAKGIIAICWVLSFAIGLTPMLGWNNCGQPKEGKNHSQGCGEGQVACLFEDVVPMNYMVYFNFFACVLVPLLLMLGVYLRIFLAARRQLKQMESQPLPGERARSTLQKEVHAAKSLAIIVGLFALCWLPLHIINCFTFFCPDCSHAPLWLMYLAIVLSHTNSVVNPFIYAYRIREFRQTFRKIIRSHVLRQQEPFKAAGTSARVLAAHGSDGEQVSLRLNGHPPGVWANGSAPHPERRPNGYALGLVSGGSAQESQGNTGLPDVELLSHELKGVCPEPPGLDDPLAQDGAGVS

The Ki is a dissociation constant, usually derived from enzyme kinetics or from competition with a known ligand. As to `Nc1nc2ccccc2c2nn(Cc3c(Cl)cccc3Cl)c(=O)n12` [Example 8], the affinity, expressed as Ki, was 12 nM. With `Nc1nc2ccccc2c2nn(Cc3cccc(F)c3)c(=O)n12` [Example 12], the affinity corresponds to a Ki of 12.2 nM. `Nc1nc2ccccc2c2nn(Cc3cccc(Cl)c3)c(=O)n12` [Example 13] showed a Ki of 4.7 nM.
